This note sets out measurements from patent US20240317748A1, “CARBONYL SUBSTITUTED DIAZASPIRO COMPOUNDS AND ITS USE” (BIONOVA PHARMACEUTICALS (SHANGHAI) LIMITED, priority 2021, published 2024).

The structures appear in SMILES notation.

One data set has as its target T1, Menin-MLL1 (Homo sapiens, UniProt O00255).
T1 construct: Menin (2-610) isform2; purchased ChemPartner 2020111101
T1 sequence (O00255 2-610): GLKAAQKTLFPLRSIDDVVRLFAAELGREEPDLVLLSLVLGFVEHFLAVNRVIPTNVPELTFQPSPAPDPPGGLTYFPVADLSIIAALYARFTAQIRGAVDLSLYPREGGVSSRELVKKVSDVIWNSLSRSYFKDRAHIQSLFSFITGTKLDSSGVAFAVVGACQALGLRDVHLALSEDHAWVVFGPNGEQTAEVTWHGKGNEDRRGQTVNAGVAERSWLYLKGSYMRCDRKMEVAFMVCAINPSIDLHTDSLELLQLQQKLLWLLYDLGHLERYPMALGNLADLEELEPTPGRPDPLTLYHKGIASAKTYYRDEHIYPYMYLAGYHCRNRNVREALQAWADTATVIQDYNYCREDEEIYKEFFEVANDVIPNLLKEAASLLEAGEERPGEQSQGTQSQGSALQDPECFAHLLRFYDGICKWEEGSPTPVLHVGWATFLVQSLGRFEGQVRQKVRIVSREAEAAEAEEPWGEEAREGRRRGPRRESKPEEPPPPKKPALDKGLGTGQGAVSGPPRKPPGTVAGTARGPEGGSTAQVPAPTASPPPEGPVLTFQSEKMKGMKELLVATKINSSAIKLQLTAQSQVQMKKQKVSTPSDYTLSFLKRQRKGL
As to the kind of experiment: Menin-MLL1 inhibition assay (fluorescence polarization, Menin protein + FAM-MLL peptide). The following applies: Menin (2-610) isoform 2, FAM-labelled MLL peptide, mP readout; read-out: Biochemical assay Menin-MLL1 IC50. The data set is classed as binding. A general note: Polarisation of emitted light reports the rotation of a fluorescent probe.

The next data set deals with MV-4-11 cells. Nature of the data set: Cell proliferation assay (CellTiter-Glo), MV-4-11. The data set is classed as cell-based, human. To be noted: MV-4-11 (MLL-AF4), 4 days incubation; read-out: Cell antiproliferation assay MV-4-11 IC50. Put shortly: (§1)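 Antiproliferative activity by CellTiter-Glo luminescence; MV4-11 (MLL-AF4) in IMDM/10% FBS, 4 days; MOLM13 (MLL-AF9) in RPMI1640/20% FBS, 12 days; OCI-AML3 (NPM1c) in RPMI1640/20% FBS, 5 days; HL-60 (MLL wild-type control) in IMDM/20% FBS, 4 days. Compounds 4-fold serial from 2 mM stock, 200-fold final dilution; 37 °C, 5% CO2.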
(In general: Cellular ATP, detected with luciferase, serves as a proxy for viable cell number.)

The test system of a further data set is OCI-AML3 cells. As to the kind of experiment: Cell proliferation assay (CellTiter-Glo), OCI-AML3. In kind it is cell-based, human. The following applies: OCI-AML3 (NPM1c mutation), 5 days incubation; read-out: Cell antiproliferation assay OCI-AML3 IC50. Here is the method: (§2) The antiproliferative activity of test compounds was assessed in human leukemia cell lines. The cell line MV4-11, MOLM13 and OCI-AML3, which expresses the MLL fusion protein MLL-AF4, MLL-AF9 and carry the NPM1c gene mutation, respectively, were tested. HL-60 was used as a control cell line containing two MLL wildtype alleles in order to exclude compounds that display general cytotoxic effect. MV4-11 cells were cultured in IMDM supplemented with 10% FBS, MOLM13 and OCI-AML3 cells were cultured in RPMI1640 supplemented with 20% FBS, and HL-60 cells were cultured in IMDM supplemented with 20% FBS. Corresponding cells (MV4-11, MOLM13, OCI-AML3 or HL-60 cell line) were seeded in 100 uL medium per well in 96-well plate (white wall with clear bottom, tissue culture treated, Corning, Cat. No. CLS3903; Lot.No. 30419025). Plates were placed in the CO2 incubator overnight. Compounds solution (2 mM starting, 4-fold serial dilution) were prepared and added to the wells containing 100 μL of the culture medium with HPD300 according to the plate map and centrifuge at 1000 rpm for 1 minutes (200-fold dilution totally). MV4-11, MOLM13, OCI-AML3 and HL-60 cells were incubated with the compounds for 4, 12, 5 and 4 days, respectively, under 5% CO2 at 37° C., respectively. 100 μL of CellTiter-Glo reagent (Promega, Cat. No. G7573, Lot. No. 0000416710) was added to the assay plate by Multidrop Combi instrument, contents were mixed for 10 minutes on an orbital shaker to induce cell lysis. After incubation at room temperature for 10 mins, clear bottom with white back seal was pasted and luminescence with Envision was read.

A further data set concerns MOLM13 cells. As to the kind of experiment: Cell proliferation assay (CellTiter-Glo), MOLM13. In kind it is cell-based, human. To be noted: MOLM13 (MLL-AF9), 12 days incubation; read-out: Cell antiproliferation assay MOLM13 IC50. Here is the method:
as §2

The test system of another data set is HL-60 cells. Nature of the data set: Cell proliferation assay (CellTiter-Glo), HL-60 control line. To be noted: 4 days incubation. In kind it is cell-based, human. Put shortly:
as §1

The nature of data set [1]: Liver microsome stability study. The data set is classed as in vitro ADME. The following applies: human liver microsomes 0.5 mg/mL, 1 μM compound, NADPH, 37° C. Here is the method: Studies were carried out in liver microsomes (Corning, 0.5 mg/mL). Stock solutions were prepared at 10 mM in DMSO for the test compounds. Aliquots of the stock solutions were diluted to 0.5 mM with acetonitrile, and then further diluted upon the addition of liver microsomes/buffer to 1.5 μM. An aliquot of 30 μL of 1.5 μM solutions was mixed with 15 μL of 6 mM NADPH and the final concentration of NADPH was 2 mM, which had been pre-warmed to 37° C. Test compounds and Ketanserin final concentrations were 1 μM. The plates were kept in a 37° C. water bath for the duration of the experiment. At each time point (0, 5, 15, 30, 45 minutes), 135 μL of acetonitrile was added into corresponding wells. After the final time point was quenched by acetonitrile, the assay plates were shaken at the vibrator (IKA, MTS 2/4) for 10 min (600 rpm/min) and then centrifuged at 5,594 g for 15 min (Thermo Multifuge×3R). Aliquots of the supernatant were taken, diluted 1:1 into distilled water, and analyzed by LC-MS/MS. The peak area response ratio to internal standard (PARR) of the compounds at 5, 15, 30, 45 minutes was compared to the PARR at time 0 to determine the percent of test compound remaining at each time point. Half-lives were calculated using Excel software, fitting to a single-phase exponential decay equation.
Background: Liver microsomes are a subcellular fraction often used to study metabolism.

A further data set addresses T2, hERG potassium channel (Homo sapiens, UniProt Q12809).
T2 construct: expressed in transfected cells; host or cells: CHO-hERG cells
As to the kind of experiment: hERG inhibition study (Qpatch, CHO-hERG cells). The following applies: highest test concentration 40 μM. The data set is classed as cell-based. Here is the method: The inhibition effects of the test compounds on hERG were carried out in CHO-hERG cells (cell density: 21.5×10˜6/mL). 10 μL compound mother liquor was added to 20 μL DMSO solution, and then continuously diluted to 6 concentrations by 3-fold. The compound solution (4 uL) of six different concentrations were added to the extracellular solution (996 uL) and diluted to the final concentration to be tested (250-fold dilution totally). The highest test concentration was 40.00 μM, followed by […], 13.3, 4.4, 1.48, 0.49 and 0.16 μM. […] The high impedance sealing of single cell and the formation of whole cell model were all completed automatically by Qpatch instrument.

T2 sequence (Q12809 whole entry): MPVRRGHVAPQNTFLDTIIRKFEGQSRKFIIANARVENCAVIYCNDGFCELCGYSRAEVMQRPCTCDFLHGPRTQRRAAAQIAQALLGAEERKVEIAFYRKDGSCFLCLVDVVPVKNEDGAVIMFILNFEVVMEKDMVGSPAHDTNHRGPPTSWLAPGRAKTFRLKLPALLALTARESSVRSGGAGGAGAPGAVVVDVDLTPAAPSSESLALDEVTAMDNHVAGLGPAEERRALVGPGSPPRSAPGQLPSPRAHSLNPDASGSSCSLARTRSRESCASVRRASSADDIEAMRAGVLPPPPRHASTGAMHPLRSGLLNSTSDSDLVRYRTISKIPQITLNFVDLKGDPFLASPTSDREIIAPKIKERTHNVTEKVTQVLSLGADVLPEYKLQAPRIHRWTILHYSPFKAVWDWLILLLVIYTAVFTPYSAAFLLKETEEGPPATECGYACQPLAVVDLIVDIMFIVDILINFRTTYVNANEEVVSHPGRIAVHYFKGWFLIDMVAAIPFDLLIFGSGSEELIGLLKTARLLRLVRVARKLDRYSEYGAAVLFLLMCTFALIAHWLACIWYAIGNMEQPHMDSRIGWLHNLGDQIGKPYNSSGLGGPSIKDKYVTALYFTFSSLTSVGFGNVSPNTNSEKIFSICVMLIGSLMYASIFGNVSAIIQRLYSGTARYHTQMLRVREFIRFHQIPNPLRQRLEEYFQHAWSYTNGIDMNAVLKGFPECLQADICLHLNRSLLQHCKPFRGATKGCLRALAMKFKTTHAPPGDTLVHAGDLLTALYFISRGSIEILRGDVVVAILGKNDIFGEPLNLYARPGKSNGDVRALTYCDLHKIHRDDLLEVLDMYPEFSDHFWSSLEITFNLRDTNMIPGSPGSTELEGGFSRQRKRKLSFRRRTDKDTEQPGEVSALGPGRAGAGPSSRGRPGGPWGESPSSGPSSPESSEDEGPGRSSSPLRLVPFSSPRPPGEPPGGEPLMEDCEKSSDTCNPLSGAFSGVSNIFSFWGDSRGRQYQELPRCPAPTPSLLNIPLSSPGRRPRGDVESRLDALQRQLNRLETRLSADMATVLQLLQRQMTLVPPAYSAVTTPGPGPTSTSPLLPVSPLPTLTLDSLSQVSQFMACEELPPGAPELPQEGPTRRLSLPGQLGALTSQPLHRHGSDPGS

As to `CCN(C(=O)c1cc(F)ccc1Oc1cncnc1N1CC2(CCN(C[C@H]3CC[C@H](NS(=O)(=O)CC)CC3)CC2)C1)C(C)C` [SNDX-5613, reference compound], the IC50 at Menin-MLL1 is 3.4 nM; with MV-4-11 cells it was 8 nM; with OCI-AML3 cells, 74.7 nM; in the data set on MOLM13 cells, 21.6 nM; with HL-60 cells (HL-60 control line (MLL wildtype), read-out: Cell antiproliferation assay HL-60 IC50), 7970 nM; at hERG potassium channel, 9600 nM. Also, in the data set with HL-60 cells (HL-60 control line, 10 μM), the “HL-60 (Pct of inhibition at 10 μM)” value amounted to 98.9%. For the same compound, the “Human liver microsome T1/2” value in data set [1] stood at 12 min.
